From PMC6009590 (The Journal of Infectious Diseases, 2018)
[ ]: non-standard residue; d: D form. The star is where a group is joined. X1 = CC(C)CCC[C@@H](C)[C@H]1CC[C@H]2[C@@H]3CC=C4C[C@@H](OC(=O)C*)CC[C@]4(C)[C@H]3CC[C@]12C; PEG4 = NCCOCCOCCOCCOCCC(=O)O

Assays:
proteinase K [1] = target: T1, proteinase K (Parengyodontium album, UniProt P06873); conditions: isolated enzyme proteinase k, pH 7.5
[2] = in vivo
proteinase K [3] = target: T1, proteinase K; assay: in vitro; conditions: isolated enzyme proteinase k, pH 7.5

T1 sequence (P06873 106-384): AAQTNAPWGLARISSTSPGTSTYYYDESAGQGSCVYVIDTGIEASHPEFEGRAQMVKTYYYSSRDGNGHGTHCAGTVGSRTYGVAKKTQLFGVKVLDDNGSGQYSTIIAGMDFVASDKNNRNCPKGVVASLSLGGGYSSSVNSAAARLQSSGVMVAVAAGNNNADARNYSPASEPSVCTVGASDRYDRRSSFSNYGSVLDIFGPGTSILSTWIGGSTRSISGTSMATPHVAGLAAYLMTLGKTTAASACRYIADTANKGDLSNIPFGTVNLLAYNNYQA

In the case of “Ac-VALDPIDISIVLNKIKSDLEESKEWIRRSNKILDSI-GSGSG-dPEG4-C-(PEG4-Toco)2-NH2 [VIKI-dPEG4-bisToco]”, the “half-life of the intact peptide fraction” value (proteinase K [1]) is reported as 5 min.
For “Ac-VALDPIDISIVLNKIKSDLEESKEWIRRSNKILDSIGSGSG[PEG4]C(X1)-NH2 [VIKI-dPEG4-Chol]”, the “biodistribution (lung, blood, CNS)” value [2] was “reached high levels in the lung” and the half-life (proteinase K [3]) was 10 min.
With “Ac-VALDPIDISIVLNKIKSDLEESKEWIRRSNKILDSI-GSGSG-dPEG4-C-(PEG4-Chol)2-NH2 [VIKI-dPEG4-bisChol]” the “half-life of the intact peptide fraction” value (proteinase K [1]) was 3 min.
